Data as given in patent publication US20230089867A1, “CYCLIC PENTAMER COMPOUNDS AS PROPROTEIN CONVERTASE SUBTILISIN/KEXIN TYPE 9 (PCSK9) INHIBITORS FOR THE TREATMENT OF METABOLIC DISORDER” (Novartis AG, priority 2018, published 2023).

Target: human PCSK9 (Homo sapiens, UniProt Q8NBP7)
Test: PCSK9 ligand binding TR-FRET assay (interference with binding of human PCSK9 to human LDLR)
Conditions: for Max % inhibition: PCSK9 FRET assay, efficacy (Amax), 100% = 1 uM unlabeled human PCSK9, 0% = DMSO; for IC50: TR-FRET, human PCSK9 Alexa Fluor 647 / human LDLR extracellular domain-Europium Kryptate, read-out: PCSK9 FRET Assay IC50
Procedure, shortened: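 Threefold compound dilutions were pre-incubated 30 min with PCSK9, after which 4 nM Europium Kryptate-tagged human LDLR ectodomain was added for a further 2 h.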

Sequence of human PCSK9 (Q8NBP7 153-692): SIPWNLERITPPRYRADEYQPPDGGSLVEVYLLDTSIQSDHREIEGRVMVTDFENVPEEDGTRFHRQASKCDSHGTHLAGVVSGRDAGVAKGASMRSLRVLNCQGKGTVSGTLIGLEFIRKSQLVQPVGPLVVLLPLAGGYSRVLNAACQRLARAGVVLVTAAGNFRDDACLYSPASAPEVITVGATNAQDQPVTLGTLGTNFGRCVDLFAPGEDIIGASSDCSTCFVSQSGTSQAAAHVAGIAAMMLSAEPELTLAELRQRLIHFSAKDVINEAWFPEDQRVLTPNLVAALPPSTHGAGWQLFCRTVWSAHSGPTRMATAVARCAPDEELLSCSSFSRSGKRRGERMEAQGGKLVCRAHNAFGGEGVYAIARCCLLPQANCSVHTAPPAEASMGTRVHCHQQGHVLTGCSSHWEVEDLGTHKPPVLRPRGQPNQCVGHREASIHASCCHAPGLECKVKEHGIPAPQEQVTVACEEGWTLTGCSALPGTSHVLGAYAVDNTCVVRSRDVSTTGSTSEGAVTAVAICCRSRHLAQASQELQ
Sequence of human PCSK9 (Q8NBP7 31-152 partner limits assumed): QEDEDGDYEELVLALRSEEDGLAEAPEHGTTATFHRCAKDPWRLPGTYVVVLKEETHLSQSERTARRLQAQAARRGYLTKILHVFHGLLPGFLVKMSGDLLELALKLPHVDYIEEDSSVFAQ

Row | Structure (SMILES) | Max % inhibition [%] | IC50 [nM]
1 | COC[C@@H]1NC(=O)[C@H](C)N(Cc2ccc(C)cc2Oc2ccc(-c3cnc(CN(C)C)n3C)cc2)C(=O)C[C@@H](Cc2ccccc2)C(=O)N(C)[C@@H](C)[C@H](C)NC(=O)C[C@H](Cc2ccc(Cl)cc2)N(C)C1=O [Compound 102, (2S,5S,8S,12S,13S,16R)-16-benzyl-8-(4-chlorobenzyl)-1-(2-(4-(2-((dimethylamino)methyl)-1-methyl-1H-imidazol-5-yl)phenoxy)-4-methylbenzyl)-5-(methoxymethyl)-2,7,12,13,14-pentamethyl-1,4,7,11,14-pentaazacyclooctadecane-3,6,10,15,18-pentaone] | 101.56 | 1.5
2 | COC[C@@H]1NC(=O)[C@H](C)N(Cc2ccc(Cl)cc2Oc2ccc(-c3cnc([C@@H](C)N(C)C)n3C)cc2)C(=O)C[C@@H](Cc2ccccc2)C(=O)N(C)[C@H]2CCCC[C@@H]2NC(=O)C[C@H](Cc2ccc(Cl)cc2)N(C)C1=O [Compound 104, (4S,7S,10S,14R,16aS,20aS)-14-benzyl-11-(4-chloro-2-(4-(2-((R)-1-(dimethylamino)ethyl)-1-methyl-1H-imidazol-5-yl)phenoxy)benzyl)-4-(4-chlorobenzyl)-7-(methoxymethyl)-5,10,16-trimethylhexadecahydrobenzo[l][1,4,7,11,14]pentaazacyclooctadecine-2,6,9,12,15(3H)-pentaone] | 109.94 | 1.4
3 | COC[C@@H]1NC(=O)[C@H](C)N(Cc2ccc(Cl)cc2Oc2ccc(-n3cnc(CN(C)C)c3C)cc2)C(=O)C[C@@H](Cc2ccccn2)C(=O)N(C)[C@H]2CCCC[C@@H]2NC(=O)C[C@H](Cc2ccc(Cl)cc2)N(C)C1=O [Compound 105, (4S,7S,10S,14R,16aS,20aS)-11-(4-chloro-2-(4-(4-((dimethylamino)methyl)-5-methyl-1H-imidazol-1-yl)phenoxy)benzyl)-4-(4-chlorobenzyl)-7-(methoxymethyl)-5,10,16-trimethyl-14-(pyridin-2-ylmethyl)hexadecahydrobenzo[l][1,4,7,11,14]pentaazacyclooctadecine-2,6,9,12,15(3H)-pentaone] | 104.44 | 1
4 | C=CC[C@@H]1CC(=O)N(Cc2ccc(C)cc2Oc2ccc(-c3cnc(CN(C)C)n3C)cc2)[C@@H](C)C(=O)N[C@@H](COC)C(=O)N(C)[C@@H](Cc2ccc(Cl)cc2)CC(=O)N[C@@H](C)[C@H](C)N(C)C1=O [Compound 107, (2S,5S,8S,12S,13S,16R)-16-allyl-8-(4-chlorobenzyl)-1-(2-(4-(2-((dimethylamino)methyl)-1-methyl-1H-imidazol-5-yl)phenoxy)-4-methylbenzyl)-5-(methoxymethyl)-2,7,12,13,14-pentamethyl-1,4,7,11,14-pentaazacyclooctadecane-3,6,10,15,18-pentaone] | 100.41 | 1.7
5 | C=CC[C@@H]1CC(=O)N(Cc2ccc(Cl)cc2Oc2ccc(-c3cnc(CN(C)C)n3C)cc2)[C@@H](C)C(=O)N[C@@H](COC)C(=O)N(C)[C@@H](Cc2ccc(Cl)cc2)CC(=O)N[C@H]2CCCC[C@@H]2N(C)C1=O [Compound 110, (4S,7S,10S,14R,16aS,20aS)-14-allyl-11-(4-chloro-2-(4-(2-((dimethylamino)methyl)-1-methyl-1H-imidazol-5-yl)phenoxy)benzyl)-4-(4-chlorobenzyl)-7-(methoxymethyl)-5,10,16-trimethylhexadecahydrobenzo[l][1,4,7,11,14]pentaazacyclooctadecine-2,6,9,12,15(3H)-pentaone] | 99.22 | 1.2
6 | COC[C@@H]1NC(=O)[C@H](CCCN2CCCC2)N(Cc2ccc(Cl)cc2Oc2ccc(-c3cnc(CN(C)C)n3C)cc2)C(=O)C[C@@H](Cc2cccc[n+]2[O-])C(=O)N(C)[C@H]2CCCC[C@@H]2NC(=O)C[C@H](Cc2ccc(Cl)cc2)N(C)C1=O [Compound 111, 2-(((4S,7S,10S,14R,16aS,20aS)-11-(4-chloro-2-(4-(2-((dimethylamino)methyl)-1-methyl-1H-imidazol-5-yl)phenoxy)benzyl)-4-(4-chlorobenzyl)-7-(methoxymethyl)-5,16-dimethyl-2,6,9,12,15-pentaoxo-10-(3-(pyrrolidin-1-yl)propyl)docosahydrobenzo[l][1,4,7,11,14]pentaazacyclooctadecin-14-yl)methyl)pyridine 1-oxide] | 103.17 | 0.9
7 | COC[C@@H]1NC(=O)[C@H](C)N(Cc2ccc(Cl)cc2Oc2cccc(C(=O)NC3CCNCC3)c2)C(=O)C[C@@H](Cc2ccccc2)C(=O)N(C)[C@@H](C)CNC(=O)C[C@H](Cc2ccc(Cl)cc2)N(C)C1=O [Compound 113, 3-(2-(((2S,5S,8S,13S,16R)-16-benzyl-8-(4-chlorobenzyl)-5-(methoxymethyl)-2,7,13,14-tetramethyl-3,6,10,15,18-pentaoxo-1,4,7,11,14-pentaazacyclooctadecan-1-yl)methyl)-5-chlorophenoxy)-N-(piperidin-4-yl)benzamide] | 53.35 | 299
8 | COC[C@@H]1NC(=O)[C@H](C)N(Cc2ccc(Cl)cc2Oc2cccc(C(=O)NC3CCN(C)CC3)c2)C(=O)C[C@@H](Cc2ccccc2)C(=O)N(C)[C@@H](C)CNC(=O)C[C@H](Cc2ccc(Cl)cc2)N(C)C1=O [Compound 118, 3-(2-(((2S,5S,8S,13S,16R)-16-benzyl-8-(4-chlorobenzyl)-5-(methoxymethyl)-2,7,13,14-tetramethyl-3,6,10,15,18-pentaoxo-1,4,7,11,14-pentaazacyclooctadecan-1-yl)methyl)-5-chlorophenoxy)-N-(1-methylpiperidin-4-yl)benzamide] | 65.13 | 24.6

Second part, the compound after the results:

Row | Max % inhibition [%] | IC50 [nM] | Structure (SMILES)
9 | 99.73 | 0.7 | COC[C@@H]1NC(=O)[C@H](C)N(Cc2ccc(Cl)cc2Oc2ccc(-c3cnc(CN4CCCC4)n3C)cc2)C(=O)C[C@@H](Cc2ccc(F)cc2)C(=O)N(C)[C@@H](C)CNC(=O)C[C@H](Cc2ccc(Cl)cc2)N(C)C1=O [Compound 108, (2S,5S,8S,13S,16R)-1-(4-chloro-2-(4-(1-methyl-2-(pyrrolidin-1-ylmethyl)-1H-imidazol-5-yl)phenoxy)benzyl)-8-(4-chlorobenzyl)-16-(4-fluorobenzyl)-5-(methoxymethyl)-2,7,13,14-tetramethyl-1,4,7,11,14-pentaazacyclooctadecane-3,6,10,15,18-pentaone]
10 | 107.46 | 3.2 | COC[C@@H]1NC(=O)[C@H](C)N(Cc2ccc(Cl)cc2Oc2ccc(-n3cnc(CN4CC5(COC5)C4)c3C)cc2)C(=O)C[C@@H](Cc2ccccc2)C(=O)N(C)[C@@H](C)CNC(=O)C[C@H](Cc2ccc(Cl)cc2)N(C)C1=O [Compound 112, (2S,5S,8S,13S,16R)-1-(2-(4-(4-(2-oxa-6-azaspiro[3.3]heptan-6-ylmethyl)-5-methyl-1H-imidazol-1-yl)phenoxy)-4-chlorobenzyl)-16-benzyl-8-(4-chlorobenzyl)-5-(methoxymethyl)-2,7,13,14-tetramethyl-1,4,7,11,14-pentaazacyclooctadecane-3,6,10,15,18-pentaone]
11 | 57.46 | 4.5 | COC[C@@H]1NC(=O)[C@H](C)N(Cc2ccc(Cl)cc2Oc2ccc(-c3nnc4n3CCNC4)cc2)C(=O)C[C@@H](Cc2ccccc2)C(=O)N(C)[C@@H](C)CNC(=O)C[C@H](Cc2ccc(Cl)cc2)N(C)C1=O [Compound 114, (2S,5S,8S,13S,16R)-16-benzyl-1-(4-chloro-2-(4-(5,6,7,8-tetrahydro-[1,2,4]triazolo[4,3-a]pyrazin-3-yl)phenoxy)benzyl)-8-(4-chlorobenzyl)-5-(methoxymethyl)-2,7,13,14-tetramethyl-1,4,7,11,14-pentaazacyclooctadecane-3,6,10,15,18-pentaone]
12 | 72.72 | 5.3 | COC[C@@H]1NC(=O)[C@H](C)N(Cc2ccc(Cl)cc2Oc2ccc(-c3cnc4c(c3)CNCC4)cc2)C(=O)C[C@@H](Cc2ccccc2)C(=O)N(C)[C@@H](C)CNC(=O)C[C@H](Cc2ccc(Cl)cc2)N(C)C1=O [Compound 115, (2S,5S,8S,13S,16R)-16-benzyl-1-(4-chloro-2-(4-(5,6,7,8-tetrahydro-1,6-naphthyridin-3-yl)phenoxy)benzyl)-8-(4-chlorobenzyl)-5-(methoxymethyl)-2,7,13,14-tetramethyl-1,4,7,11,14-pentaazacyclooctadecane-3,6,10,15,18-pentaone]
13 | 59.45 | 4.8 | COCC(=O)N1CCn2c(nnc2-c2ccc(Oc3cc(Cl)ccc3CN3C(=O)C[C@@H](Cc4ccccc4)C(=O)N(C)[C@@H](C)CNC(=O)C[C@H](Cc4ccc(Cl)cc4)N(C)C(=O)[C@H](COC)NC(=O)[C@@H]3C)cc2)C1 [Compound 116, (2S,5S,8S,13S,16R)-16-benzyl-1-(4-chloro-2-(4-(7-(2-methoxyacetyl)-5,6,7,8-tetrahydro-[1,2,4]triazolo[4,3-a]pyrazin-3-yl)phenoxy)benzyl)-8-(4-chlorobenzyl)-5-(methoxymethyl)-2,7,13,14-tetramethyl-1,4,7,11,14-pentaazacyclooctadecane-3,6,10,15,18-pentaone]
14 | 67.25 | 4.2 | COCC(=O)N1CCc2ncc(-c3ccc(Oc4cc(Cl)ccc4CN4C(=O)C[C@@H](Cc5ccccc5)C(=O)N(C)[C@@H](C)CNC(=O)C[C@H](Cc5ccc(Cl)cc5)N(C)C(=O)[C@H](COC)NC(=O)[C@@H]4C)cc3)cc2C1 [Compound 117, (2S,5S,8S,13S,16R)-16-benzyl-1-(4-chloro-2-(4-(6-(2-methoxyacetyl)-5,6,7,8-tetrahydro-1,6-naphthyridin-3-yl)phenoxy)benzyl)-8-(4-chlorobenzyl)-5-(methoxymethyl)-2,7,13,14-tetramethyl-1,4,7,11,14-pentaazacyclooctadecane-3,6,10,15,18-pentaone]
